# US9408845B2, “Formulations containing pyridazine compounds” (Northwestern University, priority 2006, dated 2016)
# Entries after “also recorded” stand apart in the source; their conditions may differ. Like-named read-outs stand apart in the source and are kept apart here.
# Legend:
# [1] = tested on: nitric oxide (NO) production in BV-2 microglial cells; assay: LPS-stimulated accumulation of nitrite (NO metabolite) in BV-2 cells, Griess assay; format: cell-based, mouse; conditions: for IC50: read-out: NO, concentration required for 50% inhibition, LPS-stimulated BV-2 cells, 16 hrs; for inhibition of LPS-stimulated accumulation of the NO metabolite, nitrite / selectivity (inhibits IL-1β but not production of NO, iNOS, COX-2): BV-2 cells; for inhibition of LPS-stimulated accumulation of the NO metabolite, nitrite: concentrations up to 33 μM; for selectivity (inhibits IL-1β but not production of NO, iNOS, COX-2): same concentration range
# Protocol: (§2) Glia cell-based assays of the concentration-dependent activity of the compounds were done as previously described (Hu T, Ralay Ranaivo et al., Current Alzheimer's Research 2005, 2:197-205; Mirzoeva. S, et al., J Med Chem 2002, 45:563-566; Ralay Ranaivo H, et al., 3 Neurosci 2006, 26:662-670). BV-2 mouse microglial cells were cultured for one day in multiwell plates and then treated in serum-free media for 16 his with either control buffer or the standard glial activating stimulus lipopolysaccharide (LPS, front Salmonella typhimurium; 100 ng/ml) in the presence of diluent or different concentrations of compounds. The accumulation of nitrite, the stable metabolite of nitric oxide (NO), was measured in V-2 conditioned media by the Griess assay as previously described (Hu W, Ralay Ranaivo et al., Current Alzheimer's Research 2005, 2:197-205; Mirzoeva S, et al, J Med Chem 2002, 45:563-566; Mirzoeva 5, et al., Brain Res 1999, 844:126434). Levels of IL-1β, TNFα, MCP-1 and IL-1β in cell lysates were measured by the Mesoscale Discovery system as per the manufacturer's instructions. Cell lysates were analyzed by Western blots as described (Mirzoeva 5, et al., J. Med Chem 2002, 45:563-566; Ralay Ranaivo H, et al J Neurosci 2006, 26:662-670) to determine the levels of inducible nitric oxide synthase (iNOS) and cyclooxygenase-2 (COX-2).
# [2] = tested on: iNOS production in activated BV-2 cells; assay: LPS-induced iNOS levels in activated BV-2 cells, Western blot; format: cell-based, mouse
# Protocol: as §2
# [3] = tested on: COX-2 production in activated BV-2 cells; assay: LPS-induced COX-2 levels in activated BV-2 cells, Western blot; format: cell-based, mouse
# Protocol: as §2
# [4] = tested on: LPS-induced IL-1β production in BV-2 microglia cells; assay: LPS-induced IL-1β production in BV-2 microglial cells; conditions: for inhibition of LPS-induced increases of IL-1β: BV2 microglial cell line, concentration dependence; for IC50: read-out: IL-1β, concentration required for 50% inhibition
# Protocol: as §2
# [5] = tested on: human Aβ infusion mouse model; assay: Human Aβ infusion mouse model, hippocampal neuroinflammation and synaptic biochemical endpoints; format: in vivo; conditions: hippocampus, Aβ-infused mice, oral compound
# Protocol: The study design and treatment paradigm for intracerebroventricular (ICV) infusion of human oligomerie Aβ1-42 into the mouse will be as described previously (Craft et al., Neurobiol Aging 25:1283-1292, 2004b), except that compound administration will be by mouth. Female C57Bl/6 mice (Harlan) weighing 20-25 g (3-4 months old) will be housed in a pathogen free facility under an approximate 12 h/12 h dark and light cycle and they will have access ad libitum to food and water.
# (§1) Once per day treatment will begin at day 21 after start of Aβ ICV infusion and continue for 14 days. Beginning at day 50 after start of Aβ ICV infusion, the Y maze test of spontaneous alternation will be used to evaluate hippocampus dependent spatial learning as described previously (Craf et al., J Mol. Neurosci. 24:115-122, 2004a). Briefly, each mouse will be placed in the “start” arm and then released to choose one of the two other arms. The mouse will be blocked from exiting the chosen arm for 30 s then they will be placed back in the start arm and released again to choose one of the two other arms. If the second choice is different from the first one, the mouse will be scored as alternating. Mice will be tested for 10 days with one trial per day, and a mean percent alternation will be calculated for each mouse. […] The brain will be removed and longitudinally bisected as described previously (Craft et al., Neurobiolo Aging 25:12834292, 2004b). […] The hippocampus will be dissected from the left half of the brain and snap-frozen for subsequent biochemical evaluation.
# S100B levels in hippocampal supernatants will be measured by a empium-based ELISA essentially as previously described (Van Eldik and Griffin, Biochem Biophys Acta 1223:398-403, 1994). Synaptophysin levels in hippocampal supernatants will be quantified by ELISA following the procedure described previously (Craft at al, 20041, supra). PSD-95 levels will be determined by Western blots using anti-PSD-95 antibodies (1:100,000 dilution; Upstate Biotechnology) as described (Craft et al., 2004b).
# It was previously shown that Aβ-induced neuroinflammation is an early event associated with the onset and progression of pathophysiology, and can be suppressed by an inhibitor of glial activation. Female C57Bl/6 mice (Harlan) weighing […] (3-4 months old) were housed in a pathogen free facility under an approximate 12 h/12 h dark and light cycle and had access ad libitum to food and water. All animal procedures were approved by the Northwestern Animal Care and Use Committee.
# [6] = tested on: human Aβ infusion mouse model; assay: Human Aβ infusion mouse model, Y maze behavioral assay; format: in vivo; conditions: 1.25, 2.5, 5, and 10 mg/kg
# From the text: as §1
# [7] = tested on: QT interval in Lead II electrocardiogram, anesthetized guinea pigs; assay: Cardiac QT interval prolongation assay in anesthetized guinea pigs; conditions: 0.3 mg/kg iv, positive control
# Protocol: The QT interval studies are performed by evaluating compounds for effects on QT interval in Lead II electrocardiograms measured in anesthetized guinea pigs (Hirohashi et al., 1991, Arzneim.-Forsch./Drug Res 41:9-18), one of the species recommended in the FDA white paper. Vehicle or compound is administered orally at 15 mg/kg (dosing volume of 10 ml/kg) to groups of male guinea pigs (weighing 330-350 g), with 5 animals per group. […] Heart rate, arterial blood pressure, and QT intervals are measured at baseline, and at 15, 30, 45, and 60 min after compound administration. Sotalol administered iv at 0.3 mg/kg serves as the positive control compound. The QT intervals are corrected for changes in heart rate using both Bazetes and Fridericia's formulae. Any increase in QT interval values over baseline values exceeding the upper 95% confidence limit of the mean changes at the corresponding time point in the vehicle-treated control group for two consecutive observation times indicates significant QT interval prolongation in the individually treated animals.
# The QT intervals (QTc) were corrected for changes in heart rate using both Bazett's and Fridericia's formulae.
# The test substance was dissolved in 2% Tween 80 and administered by oral administration. The substance was treated at 15 mg/kg with a dosing volume of 10 ml/kg. Duncan Hartley derived guinea pigs provided by MDS Pharma Services—Taiwan Ltd were used. Sotalol was obtained from Sigma, USA.
# Groups of guinea pigs (weighing 330-350 g) with 5 animals each were employed. The animals were anesthetized with urethane (1500 mg/kg, IV bolus injection in a volume of 5 ml/kg) and breathed spontaneously. Lead II ECG was obtained with subdermal needle electrodes and ECG signal conditioner. Heart rate was measured with a pulse rate tachometer. The carotid artery was cannulated with a catheter that was connected to a pressure transducer and a pressure processor for measurements of arterial blood pressure (BP). […] QTC intervals were obtained by correction for heart rate changes using Bazett's and Fridericia's formulae. Increase in QTc interval in individual treated guinea pigs that lies outside the upper limit of 95% confidence limits (mean±SD) of the changes for the vehicle-treated control at corresponding time points for two consecutive times is considered significant.
# [8] = LPS-stimulated BV-2 cells, 16 hrs
Compound,"inhibition of LPS-stimulated accumulation of the NO metabolite, nitrite [1]",suppression of LPS-induced production of iNOS [2],suppression of LPS-induced production of COX-2 [3],inhibition of LPS-induced increases of IL-1β [4],"selectivity (inhibits IL-1β but not production of NO, iNOS, COX-2) [1]",also measured
4-Methyl-6-phenyl-3-(4-pyridin-2-yl)piperazin-1-yl)pyridazine [Compound 8],–,–,–,–,–,IC50 [1]: > 25 µM
4-Methyl-6-phenyl-3-(4-pyridin-4-yl)piperazin-1-yl)pyridazine [Compound 9],–,–,–,–,–,IC50 [1]: > 25 µM
4-methyl-6-phenyl-3-(4-pyrimidin-2-ylpiperazin-1-yl)pyridazine [MW01-2-151SRM],not inhibited,does not suppress,does not suppress,Concentration dependent inhibition,–,–
4-pyridyl-6-phenyl-3-(4-pyrimidin-2-ylpiperazin-1-yl)pyridazine [MW01-6-189WH],not inhibited,does not suppress,does not suppress,Concentration dependent inhibition,–,–
c1ccc(Cc2cc(-c3ccccc3)nnc2N2CCN(c3ncccn3)CC2)cc1 [Compound 2],–,–,–,–,–,"IC50 [1]: > 25 µM; IC50 [4, 8]: 5.3 ± 0.6 µM"
CC(C)Cc1cc(-c2ccccc2)nnc1N1CCN(c2ncccn2)CC1 [Compound 4],–,–,–,–,–,"IC50 [1]: 22 ± 3 µM; IC50 [4, 8]: 6.1 ± 2.5 µM"
Cc1cc(-c2ccccc2)nnc1N1CCN(c2cnccn2)CC1 [Compound 7],–,–,–,–,–,"IC50 [4, 8]: 46.1 ± 23.3 µM"
"Cc1cc(-c2ccccc2)nnc1N1CCN(C2CCCCC2)CC1 [Compound 10, 3-(4-cyclohexylpiperazin-1-yl)-4-methyl-6-phenylpyridazine]",–,–,–,–,–,"IC50 ([4]; Mus musculus, BV-2, 16 h): 31.4 ± 4.9 µM"
"Cc1cc(-c2ccccc2)nnc1N1CCN(C)CC1 [Compound 11, 4-Methyl-3-(4-methylpiperazin-1-yl)-6-phenylpyridazine]",–,–,–,–,–,"IC50 ([4]; Mus musculus, BV-2, 16 h): 48.9 ± 23.2 µM"
"Clc1cc(-c2ccccc2)nnc1N1CCN(c2ncccn2)CC1 [MW01-6-127WH, 4-chloro-6-phenyl-3-(4-pyrimidin-2-ylpiperazin-1-yl)pyridazine]",–,–,–,–,–,"IC50 ([1]; Mus musculus): 19 ± 8 µM; IC50 ([4]; Mus musculus, BV-2, 16 h): 9.5 ± 4 µM"
"Cc1cc(-c2ccccc2)c(N2CCN(c3ncccn3)CC2)nn1 [MW01-7-057WH, 6-methyl-4-phenyl-3-(4-pyrimidin-2-ylpiperazin-1-yl)pyridazine]",not inhibited,does not suppress,does not suppress,Concentration dependent inhibition,selective,loss of PSD-95 [5]: did not block; loss of synaptophysin [5]: blocked; up-regulation of IL-1β [5]: did not block; up-regulation of S100B [5]: blocked; loss of PSD-95 ([5]; listed as MW01-2-057WH): no significant effect; prevention of Y-maze behavioral deficit [6]: significantly effective
"c1ccc(-c2cc(-c3ccncc3)c(NCC3CC3)nn2)cc1 [MW01-7-084WH, N-(cyclopropylmethyl)-6-phenyl-4-(pyridin-4-yl)pyridazin-3-amine]",not inhibited,does not suppress,does not suppress,Concentration dependent inhibition,selective,loss of PSD-95 [5]: prevented; loss of synaptophysin [5]: not as effective as MW01-2-151SRM; up-regulation of IL-1β [5]: blocked; up-regulation of S100B [5]: blocked; prevention of Y-maze behavioral deficit [6]: trend toward preventing
"CN1CCN(c2nnc(-c3ccccc3)cc2-c2ccncc2)CC1 [MW01-7-085WH, 3-(4-methylpiperazin-1-yl)-6-phenyl-4-(pyridin-4-yl)pyridazine]",not inhibited,does not suppress,does not suppress,Concentration dependent inhibition,selective,loss of PSD-95 [5]: prevented; loss of synaptophysin [5]: not as effective as MW01-2-151SRM; up-regulation of IL-1β [5]: blocked; up-regulation of S100B [5]: blocked; prevention of Y-maze behavioral deficit [6]: trend toward preventing
"c1ccc(-c2cc(N3CCCCC3)c(N3CCN(c4ncccn4)CC3)nn2)cc1 [MW01-7-107WH, 2-(4-(6-phenyl-4-(piperidin-1-yl)pyridazin-3-yl)piperazin-1-yl)pyrimidine]",also inhibited,also inhibited,also inhibited,Concentration dependent inhibition,nonselective,–
"c1ccc(-c2cc(-c3ccccc3)c(N3CCNCC3)nn2)cc1 [MW01-7-133WH, 4,6-diphenyl-3-piperazinylpyridazine]",not inhibited,does not suppress,does not suppress,Concentration dependent inhibition,selective,–
"CC(C)NCC(O)c1ccc(NS(C)(=O)=O)cc1 (stereo not shown) [sotalol, reference compound]",–,–,–,–,–,QTc interval prolongation [7]: caused significant prolongation; also recorded: significant increase
